In paper PMC2137936, “Molecular Analysis of Thymopentin Binding to HLA-DR Molecules” (PLoS ONE, 2007):
No end group written: not given here.

How the values were obtained:
[1] = tested on: HLA-DR on the surface of EBV-transformed B cells; assay: Direct binding of FITC-labeled TP5 to EBV-transformed B cells (flow cytometry); parameters: species or system human
Protocol: Therefore, a quantitative flow cytometric assay was used to get a better insight into the binding affinity of TP5 to HLA-DR on the surface of EBV-transformed B cells. […] Simultaneously, a correlation with R^2 = 0.9903 and a slope of 0.01311 were obtained. We then compared the specific binding of FITC-labeled TP5 to HLA-DR.
EBV-transformed B cells expressing HLA-DR molecules were maintained in RPMI 1640 containing 2 mM L-glutamine (HyClone Laboratories, UT, USA) supplemented with 10% standard FBS (HyClone Laboratories, UT, USA) at 37°C and in 5% CO2. Expression of HLA-DR was verified using mAb-DR L243 labeled with FITC (Pharmingen, San Diego, USA), by incubation for 45 min on ice followed by CLSM and FCM.
EBV-transformed B cells (3×10^5 per sample) were incubated with various concentrations of FITC-labeled TP5 in binding buffer for 2 h at 37°C. Thereafter, the cells were washed twice and resuspended in 500 µl PBS, followed by flow cytometric analysis using a FACSCan analyzer (Becton Dickinson Immunochemical Systems, Mountain View, USA). A total of ten thousand events were acquired for each sample. The MFI was used to evaluate the binding ability of FITC-labeled TP5 to APC.

[2] = tested on: EBV-transformed B cells expressing HLA-DR; assay: Cellular peptide loading assay (CLSM uptake); format: cell-based, human; details: 10 µM, 2 h at 37°C, excitation 488 nm
Protocol: To validate the ability of FITC-labeled TP5 to load on EBV-transformed B cells expressing HLA-DR, a qualitative CLSM assay was used to examine the fluorescent signal of EBV-transformed B cells. The surface fluorescence was hardly observed from the cells in the absence of FITC-labeled TP5 at the excitation of 488 nm (Fig. 1A).
We harvested 3×10^5 cells, washed twice with phosphate-buffered saline (PBS) buffer (pH 7.4) supplemented with 0.1% BSA and 0.05% NaN3. Ten µM FITC- labeled TP5 was added to the treated cells in PBS (pH 7.4) containing 1% BSA (binding buffer), then incubated for 2 h at 37°C. Thereafter, the cells were washed twice and resuspended in 500 µl PBS, followed by CLSM analysis using Leica Microsystems (TCS SP2, Heidelberg, Germany).

With “FITC-labeled TP5: TP5 conjugated with fluorescein isothiocyanate (FITC) (RKDVY; also: FITC label, position not given here)” the “cells stained above the background” value ([1]; flow cytometry histogram of fluorescence intensities, EBV-transformed B cells (Fig. 4)) was 94%, the “increase in mean fluorescence intensity (MFI) above background” value ([1]; flow cytometry, EBV-transformed B cells versus PBS alone (Fig. 4)) was “approximately 3 orders of magnitude” and the “surface fluorescence of cells (uptake)” value [2] was “strong surface fluorescence”.
